The conditions of data set [1]: main phase transition temperature, solid to fluid phase; cited from earlier work.
The nature of data set [2]: Main phase transition temperature (Tm) and reduced temperature (TR) of microbubble lipids. In kind it is physicochemical. Particulars: reduced temperature T/Tm in Kelvin. The procedure: As used herein, the “phase transition temperature” (Tm) refers to the temperature at which lipid assemblies transition from a solid (crystalline) phase to a fluid (liquid crystalline) phase. For example, 1,2-Dipentadecanolyl-sn-Glycero-3-Phosphoeholine (C15) has a Tm of 33° C. Thus this lipid is in the solid phase at room temperature and transitions to the fluid phase when it is injected into the body.
Shell cohesion, as a function of acyl chain length, may be represented by the reduced temperature (TR), which is equal to the ratio of the ambient temperature (or “working temperature”) (T) to the main phase transition temperature (Tm) of the lipid (in Kelvin). For TR>1, the shell is in an expanded (fluid) state at the working temperature. For TR<1, the shell is in a condensed (solid) state at the working temperature. See Table 2 for a list of lipids with their corresponding main phase transition temperatures (Tm) and reduced temperatures (TR).

Data set [3] concerns desaturated, venous whole blood. To be noted: 0.2 mL added to 2 mL blood, one inversion.
Experimental: In one test tube, 0.2 mL of the microbubbles were added to 2 mL of desaturated, venous whole blood.
The test tubes were inverted once, and co-oximetry and blood gas values measurements were taken using a Radiometer ABL800 X blood gas machine.

In the case of `CCCCCCCCCCCC(=O)OC[C@H](COP(=O)([O-])OCC[N+](C)(C)C)OC(=O)CCCCCCCCCCC` [C12, 1,2-Dilauroyl-sn-Glycero-3-Phosphocholine], the “Tm (° C.)” value in data set [1] was −1 °C. In addition, in data set [2], the “TR at 25° C.” value is recorded as 1.10 and the “TR at 37° C.” value is 1.14.
In the case of `CCCCCCCCCCCCCC(=O)OC[C@H](COP(=O)([O-])OCC[N+](C)(C)C)OC(=O)CCCCCCCCCCCCC` [C14, 1,2-Dimyristoyl-sn-Glycero-3-Phosphocholine], the “Tm (° C.)” value in data set [1] is 23 °C. Besides, in data set [2], the “TR at 25° C.” value was found to be 1.01 and the “TR at 37° C.” value is 1.05.
With `CCCCCCCCCCCCCCC(=O)OC[C@H](COP(=O)([O-])OCC[N+](C)(C)C)OC(=O)CCCCCCCCCCCCCC` [C15, 1,2-Dipentadecanoyl-sn-Glycero-3-Phosphocholine], the “Tm (° C.)” value in data set [1] is 33 °C. Besides, in data set [2], the “TR at 25° C.” value is given as 0.97 and the “TR at 37° C.” value was determined as 1.01.
`CCCCCCCCCCCCCCCC(=O)OC[C@H](COP(=O)([O-])OCC[N+](C)(C)C)OC(=O)CCCCCCCCCCCCCCC` [C16, 1,2-Dipalmitoyl-sn-Glycero-3-Phosphocholine]: the “Tm (° C.)” value in data set [1] is 41 °C. In data set [2], the “TR at 25° C.” value was determined as 0.95 and the “TR at 37° C.” value is 0.99.
Consider `CCCCCCCCCCCCCCCCCC(=O)OC[C@H](COP(=O)(O)OCCN)OC(=O)CCCCCCCCCCCCCCCCC` [C18, 1,2-Distearoyl-sn-Glycero-3-Phosphoethanolamine], for which, in data set [1], the “Tm (° C.)” value was 55 °C. Moreover, in data set [2], the “TR at 25° C.” value is on record as 0.91 and the “TR at 37° C.” value is 0.95.
For `O=O` [unencapsulated oxygen, oxygen], in data set [3], the PCO2 stood at 59 mmHg, the PO2 is given as 33 mmHG, the “oxygenated hemoglobin (oxyHb)” value is reported as 59% and the pH was determined as 7.33.
